Test systems include A549 NSCLC; HOP-92 NSCLC; MALME-3M melanoma; MDA-N; MOLT-4 leukemia; NCI-H226 lung; RPMI-8226 leukemia; U251 CNS.
Holding throughout (assay): NCI anticancer screen, dose series, 48 h

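Values below derive from 48-hour exposures of cells grown in 96-well plates, with endpoints linearly interpolated between the two concentrations bracketing the appropriate inhibition level. TGI: concentration producing complete growth inhibition.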 Where a SMILES comes first, the peptide text is derived from it. The star is where a group is joined. Fmoc = O=C(OCC1c2ccccc2-c2ccccc21)*; Boc = CC(C)(C)OC(=O)*

The values that follow come from PubChem BioAssay (NCI).

For the molecule `c1ccc2c(c1)CCc1[nH]c3c(c1-2)-c1ccccc1CC3`, the TGI in the test with A549 NSCLC, with HOP-92 NSCLC, in the test with MALME-3M melanoma, with MDA-N, in the test with MOLT-4 leukemia and in the test with NCI-H226 lung was more than 100 µM in each case. Further, the TGI in the test on RPMI-8226 leukemia and in the test on U251 CNS was more than 100 µM each time.
On to `COC(=O)[C@H](CC(C)C)Nc1c(O)c2c(c(O)c1Cl)C(=O)C=CC2=O`, for which the TGI in the test on A549 NSCLC, in the test with HOP-92 NSCLC, with MALME-3M melanoma, in the test on MDA-N, in the test on MOLT-4 leukemia and in the test on NCI-H226 lung was more than 10 µM in each case. Besides, the TGI with RPMI-8226 leukemia and with U251 CNS was more than 10 µM each time.
As to `CC1CCC2(CC1)NC1=C(CC(C)CC1)C1=C2CC(C)CC1` (stereo unspecified), the TGI in the test on A549 NSCLC was more than 100 µM; in the test on HOP-92 NSCLC it was 39.4 µM; in the test with MALME-3M melanoma it was 74.5 µM; with MDA-N, more than 100 µM; in the test with MOLT-4 leukemia, 53 µM; in the test with NCI-H226 lung it was 30.8 µM. For the same molecule, the TGI in the test on RPMI-8226 leukemia worked out at 55.6 µM; in the test with U251 CNS, 33.5 µM.
In the case of `CCOc1cc2oc(C)cc(=O)c2c(OC)c1C=Nc1ccc(Cn2c(C)nc3ccccc32)cc1`, the TGI in the test with A549 NSCLC, with HOP-92 NSCLC, with MALME-3M melanoma, in the test with MDA-N, with MOLT-4 leukemia and with NCI-H226 lung was more than 100 µM in each case. Besides, the TGI with RPMI-8226 leukemia and in the test on U251 CNS was more than 100 µM in each case.
On to `CSc1ncc2c(n1)sc1c(=O)n(-c3ccccc3)cnc12`, for which the TGI in the test on A549 NSCLC, with HOP-92 NSCLC, in the test with MALME-3M melanoma, with MDA-N, with MOLT-4 leukemia and in the test with NCI-H226 lung was more than 100 µM throughout. In addition, the TGI with RPMI-8226 leukemia and in the test with U251 CNS was more than 100 µM each time.
Regarding `O=C(NCCNCCCNC(=O)c1cc(-c2ccccc2)nc2ccccc12)c1cccc(OCc2ccccc2)c1OCc1ccccc1`, the TGI worked out at 3.15 µM with A549 NSCLC; 3.23 µM in the test on HOP-92 NSCLC; 3.58 µM in the test with MALME-3M melanoma; 3.05 µM in the test on MDA-N; 3.51 µM in the test with MOLT-4 leukemia; 3.35 µM in the test with NCI-H226 lung. In the test with RPMI-8226 leukemia, this molecule showed a TGI of 5.05 µM.
Regarding `Brc1ccc2c(c1)-c1nc3nc4c(cc3cc1CC2)CCc1ccc(Br)cc1-4`, the TGI in the test with A549 NSCLC, with HOP-92 NSCLC, in the test on MALME-3M melanoma, in the test with MDA-N, in the test with MOLT-4 leukemia and in the test with NCI-H226 lung was more than 100 µM each time. Further, the TGI with RPMI-8226 leukemia and with U251 CNS was more than 100 µM in each case.
Regarding `O=C1CC(=O)NC(=NNS(=O)(=O)c2ccccc2)N1`, the TGI with A549 NSCLC, in the test with HOP-92 NSCLC, in the test on MALME-3M melanoma, with MDA-N, with MOLT-4 leukemia and in the test with NCI-H226 lung was more than 100 µM in each case. Further, the TGI in the test with RPMI-8226 leukemia and in the test on U251 CNS was more than 100 µM in each case.
Take `Cc1ccc2nc(C=Nc3ccc(Cl)cc3)cc(C)c2c1`: the TGI with A549 NSCLC is more than 100 µM; in the test on HOP-92 NSCLC it was 81 µM; in the test with MALME-3M melanoma, more than 64.9 µM; in the test with MDA-N, 25.2 µM; in the test on MOLT-4 leukemia, more than 53.6 µM; in the test with NCI-H226 lung it was 72.7 µM. In addition, the TGI in the test with RPMI-8226 leukemia is more than 51.3 µM; in the test on U251 CNS, 32.9 µM.
As to `O=c1c2cc(Cl)cc(Cl)c2oc2nc3n(c(=O)c12)CCCS3`, the TGI in the test with A549 NSCLC, in the test on HOP-92 NSCLC, in the test on MALME-3M melanoma, in the test with MDA-N, in the test with MOLT-4 leukemia and in the test on NCI-H226 lung was more than 100 µM in each case. Besides, the TGI in the test on RPMI-8226 leukemia and in the test with U251 CNS was more than 100 µM throughout.
`O=C1C=C(OCCCCl)C(=O)c2c(O)ccc(O)c21`: the TGI in the test on A549 NSCLC was determined as 0.645 µM; with HOP-92 NSCLC, 2.89 µM; in the test with MALME-3M melanoma it was 0.322 µM; in the test with MDA-N, 0.349 µM; in the test with MOLT-4 leukemia, 6.06 µM; in the test with NCI-H226 lung, 3.7 µM. Further, the TGI with RPMI-8226 leukemia was 6.01 µM; in the test on U251 CNS, 3.56 µM.
Take `CCOC(=O)c1c2c(c(O)c3ccccc3c(O)n(Cc3ccccc3)c1C)C(=O)C=CC2=O`: the TGI with A549 NSCLC, with HOP-92 NSCLC, in the test on MALME-3M melanoma, with MDA-N, with MOLT-4 leukemia and with NCI-H226 lung was more than 100 µM throughout. For the same molecule, the TGI with RPMI-8226 leukemia and in the test with U251 CNS was more than 100 µM throughout.
For the molecule `OCCOc1ccccc2cccc1-2`, the TGI with A549 NSCLC, in the test with HOP-92 NSCLC, in the test on MALME-3M melanoma, in the test with MDA-N, in the test with NCI-H226 lung and with RPMI-8226 leukemia was more than 100 µM each time. This molecule showed a TGI in the test on U251 CNS of more than 100 µM.
As to `CC(C)(C)OC(=O)NCCCCC(NC(=O)C(Cc1c[nH]c2ccccc12)NC(=O)OCC1c2ccccc2-c2ccccc21)C(=O)N1CCCC1C(=O)NCC(N)=O` (stereo unspecified) (Fmoc-WK(Boc)PG-NH2; configuration not given here), the TGI in the test on A549 NSCLC, in the test on HOP-92 NSCLC, in the test on MALME-3M melanoma, with MDA-N, with MOLT-4 leukemia and in the test with NCI-H226 lung was more than 100 µM in each case. Besides, the TGI in the test with RPMI-8226 leukemia and with U251 CNS was more than 100 µM in each case.
As to `O=C(O)c1ccc(C2SCc3nc4ccccc4n32)cc1` (stereo unspecified), the TGI in the test with A549 NSCLC, in the test on HOP-92 NSCLC, in the test on MALME-3M melanoma, with MDA-N, in the test on MOLT-4 leukemia and in the test on NCI-H226 lung was more than 100 µM throughout. In addition, the TGI in the test with RPMI-8226 leukemia and in the test with U251 CNS was more than 100 µM each time.
As for `C[N+](C)(C)CC(=O)N/N=C/c1ccncc1`, the TGI in the test on A549 NSCLC, in the test with HOP-92 NSCLC, in the test with MALME-3M melanoma, in the test on MDA-N, in the test with MOLT-4 leukemia and with NCI-H226 lung was more than 100 µM throughout. For the same molecule, the TGI in the test on RPMI-8226 leukemia and with U251 CNS was more than 100 µM each time.
